Each structure is given as a SMILES string.

Data set [1] has as its system malondialdehyde (MDA) formation. Put plainly: Inhibition of lipid peroxidation: MDA formation in tissues of LPS-induced mice. The data set is classed as in vivo, mouse. The conditions noted are these: LPS 250 μg/kg i.p. 3 days, mean ± SD; for MDA formation in pancreas, preventative treatment: compound 25 μmol/kg i.p. for 3 days and 120 min before sacrifice; for MDA formation in pancreas, curative treatment: compound 25 μmol/kg i.p. only for the last 2 days. How it is done: (§1) According to the results from previous in vitro([18]) efficacy and safety studies and in vivo pharmacokinetics, the efficacy of the FA and the more LAT1-specific derivative, D1 against oxidative stress and lipid peroxidation was evaluated by determining malondialdehyde (MDA) formation in mouse tissues. To induce oxidative stress, mice were administered 250 μg/kg of lipopolysaccharide (LPS) i.p. once per day for 3 consecutive days. On the 4th day, mice were anesthetized using a mixture of ketamine (140 mg/kg) and xylazine (8 mg/kg) and sacrificed by decapitation. Animals were divided into one of four treatment groups (n = 4 per group); (1) LPS only, (2) LPS with the FA or D1 (25 μmol/kg; i.p.) for 3 days and 120 min before the sacrifice on the 4th day (preventative efficacy), (3) LPS with the FA or D1 (25 μmol/kg; i.p.) only for the last 2 days (curative efficacy), or (4) control mice treated with 0.9% NaCl solution i.p. once per day for 3 days. After decapitation, the kidney, liver, and pancreas were rapidly collected, snap-frozen on dry ice, and stored at −80 °C until analyzed.
Pieces of snap-frozen tissues were homogenized 1:10 (w/v) in 50 mM TBS (pH 7.4) containing 0.01% butylated hydroxytoluene by sonicating samples in pulses for 5 s with a SoniPrep 150 Plus disintegrator (MSE Ltd., London, UK). The homogenates were then centrifuged at 10 000 × g for 20 min at 4 °C, and the supernatants were collected for the assays.
MDA was quantified by the derivatization reaction with thiobarbituric acid (TBA) (Sigma, St. Louis, MO, USA), with a previously described protocol.[30] The analysis was carried out with an Agilent 1290 Infinity II LC System (Agilent Technologies, Santa Clara, CA, USA) combined with an Agilent 1290 Infinity II Diode Array Detector. The results were calculated as μmol of formed MDA-TBA2 per mg of tissue.

Data set [2] concerns prostaglandin E2 (PGE2) production. The experiment in a line: Inhibition of prostaglandin E2 production in tissues of LPS-induced mice. The class given is in vivo, mouse. The conditions noted are these: LPS 250 μg/kg i.p., mean ± SD; for PGE2 in liver, preventative treatment / PGE2 in pancreas, preventative treatment: compound 25 μmol/kg i.p. 3 days and 120 min before sacrifice; for PGE2 in liver, curative treatment / PGE2 in pancreas, curative treatment: compound 25 μmol/kg i.p. last 2 days. How it is done:
as §1
The ability of FA and D1 to inhibit prostaglandin E2 (PGE2) production in the mouse kidney, liver, and pancreas was evaluated after the exposure of mice to LPS. The tissue homogenate supernatants (n = 4), prepared as described above in MDA sample preparation (Chapter 2.7), were further diluted 1:5 with 80% MeOH (v/v) solution containing the deuterated internal standard, PGE2-d4 (Cayman Chemical Company, Ann Arbor, MI, USA). To improve the extraction of prostaglandins and precipitation of proteins, the diluted samples were incubated overnight in a freezer (−80 °C). Subsequently, samples were centrifuged at 16 000 × g for 20 min at 4 °C and the supernatants were collected for the LC–MS/MS analysis.
The LC–MS/MS analysis was carried out with a previously described method[30] using an Agilent 1290 Infinity LC System (Agilent Technologies, Waldbronn, Germany) and an Agilent 6495 triple quadrupole mass spectrometer with a heated electrospray ionization source (Agilent Technologies, Palo Alto, CA, USA). Data were collected using Agilent MassHunter Workstation software (version B.06.00) and processed with the Quantitative Analysis (B.07.00) software. The results were calculated as nmol of PGE2 per mg of tissue.

A further data set deals with human plasma. Put plainly: Coagulation parameters (PT, INR, APTT, TT) in human plasma. Here is the method:
To assess the safety of the LAT1 derivatives in the human blood circulation system, the basic coagulation parameters, prothrombin time (PT), activated partial thromboplastin time (APTT), thrombin time (TT), and international normalized ratio (INR) were determined from human plasma in the presence of FA, D1, and D2. The parameters were studied using a coagulometer (CoagChrom-3003 Bio-Ksel, Grudziądz, Poland), with the previously described methods.[25],[31] The following reagents were used in the basic coagulation studies: Bio-Ksel System APTT reagent and calcium chloride, Bio-Ksel PT plus reagent (thromboplastin and solvent), and thrombin (3.0 UNIH/mL), (Bio-Ksel, Grudziądz, Poland). The experiments were performed using citrated human plasma. Control samples consisting of drug solvents [distilled water and methanol mixture (1:2 v/v)] were conducted. The methods were validated using normal plasma (Bio-Ksel, Grudziądz, Poland). Coefficients of variability (CV) were counted (n = 5): CV(PT) = 5.34%, CV(APTT) = 2.61%, CV(TT) = 1.82%. Following reference values for each test were applied: PT: 9.7–14.6 s; APTT: 26.7–40.0 s; and TT: 14.0–18.0 s for 3.0 UNIH/mL of thrombin.

For a further data set, the system named is LAT1. The arrangement: method as in PMID 31814871, PMID 35011270. The conditions noted are these: previous uptake mechanism studies; cited from earlier work.
A further data set has as its system human erythrocytes. The experiment in a line: Erythrocyte morphology, phase-contrast microscopy. The class given is cell-based. The conditions noted are these: tested 25–100 μM. How it is done:
To further evaluate the safety of derivatives in human blood, the effects of FA, D1, and D2 on hemolysis were studied using a previously described protocol.[31] Shortly, freshly collected erythrocytes were washed three times with 1 mL of 0.9% saline (Sigma-Aldrich, Germany). Subsequently, 2% RBC suspension was prepared by diluting 1 mL of erythrocytes in 50 mL of 0.9% saline. FA, D1, and D2 (1–100 μM) were incubated with the RBC suspension at 37 °C for 1 h. Additionally, negative controls containing 0.9% NaCl and positive controls with Triton X-100 (Polish Chemical Reagents, Poland) were studied. After incubation, the samples were centrifuged at 3 000 rpm for 10 min, and the absorbance values were measured from the collected supernatants at the wavelength of 550 nm. Samples with Triton X (positive control) represented 100% hemolysis. Results of the studies are presented as a percentage of released hemoglobin. The counted CV was 8.1% (n = 5). Additionally, the influence of FA and its derivatives (25–100 μM) on RBC morphology was studied using a phase contrast Opta-Tech inverted microscope. The morphology was analyzed using a dedicated OptaView 7 software (Opta-Tech, Warsaw, Poland).

For data set [3] the following is noted: previous in vitro bioconversion studies; cited from earlier work.

`COc1cc(C=CC(=O)O)ccc1O` [ferulic acid, 4-hydroxy-3-methoxycinnamic acid]: in data set [1], the “MDA formation in pancreas, preventative treatment” value was determined as 0.94 ± 0.41 µmol/mg and the “MDA formation in pancreas, curative treatment” value was 1.04 ± 0.29 µmol/mg. Besides, in data set [2], the “PGE2 in liver, preventative treatment” value came to 25.41 ± 6.35 nmol/mg; the “PGE2 in pancreas, preventative treatment” value was found to be 57.56 ± 51.63 nmol/mg; the “PGE2 in liver, curative treatment” value is recorded as 37.07 ± 10.02 nmol/mg; the “PGE2 in pancreas, curative treatment” value came to 54.68 ± 22.02 nmol/mg. Besides, the “effect on INR” value in the data set on human plasma was “increased INR”. Further, the “prothrombin time (PT)” value in the data set on human plasma (100 μM, control 13.2 ± 1.3 s) is recorded as 15.5 ± 0.4 s.

Regarding `COc1cc(/C=C/C(=O)Nc2cccc(C[C@H](N)C(=O)O)c2)ccc1O` [derivative 2], in the data set on LAT1, the “affinity toward LAT1 compared to the secondary transport mechanism” value is “over 20 times” and the “overall uptake speed compared to D1” value is recorded as 1.5 times. Also, the “concentration at which formation of echinocytes was observed” value in the data set on human erythrocytes was in the range of 50 to 100 µM. Besides, the “release of FA in the mouse liver” value in data set [3] is reported as “neither D1 nor D2 released FA”.

Take `COc1cc(C=CC(=O)NCc2cccc(CC(N)C(=O)O)c2)ccc1O` (stereo not shown) [derivative 1]: in data set [1], the “MDA formation in pancreas, preventative treatment” value was found to be 0.46 ± 0.47 µmol/mg and the “MDA formation in pancreas, curative treatment” value amounted to 0.44 ± 0.39 µmol/mg. Besides, in the data set with human erythrocytes, the “concentration at which anisocytosis with formation of macrocytes was observed” value was 50 to 100 µM and the “concentration at which few stomatocytes were detected” value was found to be 100 µM. Moreover, in data set [2], the “PGE2 in liver, preventative treatment” value came out at 15.95 ± 9.61 nmol/mg; the “PGE2 in pancreas, preventative treatment” value is 24.51 ± 15.99 nmol/mg; the “PGE2 in liver, curative treatment” value was 48.55 ± 14.50 nmol/mg; the “PGE2 in pancreas, curative treatment” value came out at 23.51 ± 8.81 nmol/mg. Further, the “effect on APTT” value in the data set with human plasma (100 μM) is “prolonged the APTT”. The “release of FA in the mouse liver” value in data set [3] is recorded as “neither D1 nor D2 released FA”.

Source of the values: paper PMC9644403, “L-type Amino Acid Transporter 1 Utilizing Ferulic Acid Derivatives Show Increased Drug Delivery in the Mouse Pancreas Along with Decreased Lipid Peroxidation and Prostaglandin Production” (Molecular Pharmaceutics, 2022).
